Where no end group is shown, it is not given here.
Assays:
Test in all cases: biochemical
Assay type in all cases: binding
[1] = target: DRB4*0101 (Homo sapiens, UniProt P01903+P13762, G164S)
[2] = target: DRB3*0101 (Homo sapiens, UniProt P01903+P79483)
[3] = target: DRB5*0101 (Homo sapiens, UniProt P01903+Q30154)

Molecule	IC50 [1] [nM]	IC50 [2] [nM]	IC50 [3] [nM]
CSCC[C@H](NC(=O)[C@@H](NC(=O)[C@@H](NC(=O)[C@@H](NC(=O)[C@H](CS)NC(=O)CNC(=O)CNC(=O)[C@H](Cc1c[nH]cn1)NC(=O)[C@H](CCC(=O)O)NC(=O)[C@H](CC(C)C)NC(=O)[C@@H](NC(=O)[C@@H](NC(=O)[C@H](CC(=O)O)NC(=O)[C@@H](N)C(C)C)C(C)C)C(C)C)C(C)C)[C@@H](C)O)[C@@H](C)O)C(=O)N[C@@H](C)C(=O)O [Envelope 21-35]	4500		
CC[C@H](C)[C@H](NC(=O)[C@H](CCC(=O)O)NC(=O)[C@H](C)NC(=O)[C@@H](NC(=O)[C@@H](NC(=O)CNC(=O)[C@@H](N)CCC(N)=O)C(C)C)[C@@H](C)O)C(=O)N[C@H](C(=O)N1CCC[C@H]1C(=O)N[C@@H](CCC(N)=O)C(=O)N[C@@H](C)C(=O)N[C@@H](CO)C(=O)N[C@H](C(=O)N[C@H](C(=O)N[C@@H](CCC(=O)O)C(=O)O)[C@@H](C)O)[C@@H](C)O)[C@@H](C)O [Envelope 156-170]	707		
CC[C@H](C)[C@H](NC(=O)[C@H](C)NC(=O)[C@@H](NC(=O)[C@H](C)NC(=O)[C@H](CC(C)C)NC(=O)[C@H](CCCNC(=N)N)NC(=O)[C@H](CCCCN)NC(=O)[C@@H]1CCCN1C(=O)[C@H](CO)NC(=O)[C@H](CC(=O)O)NC(=O)[C@H](C)NC(=O)[C@H](CCC(N)=O)NC(=O)[C@H](Cc1ccccc1)NC(=O)[C@@H](N)CCCCN)[C@@H](C)O)C(=O)N[C@@H](C)C(=O)O [NS1 33-47]	916	22	
CC[C@H](C)[C@H](NC(=O)[C@@H](NC(=O)[C@H](CCSC)NC(=O)[C@H](CC(=O)O)NC(=O)[C@H](CO)NC(=O)[C@H](CCC(=O)O)NC(=O)[C@H](CC(C)C)NC(=O)[C@@H](NC(=O)CNC(=O)[C@H](CC(N)=O)NC(=O)[C@H](CO)NC(=O)[C@H](Cc1c[nH]c2ccccc12)NC(=O)[C@H](CC(C)C)NC(=O)[C@@H](NC(=O)[C@@H](N)Cc1c[nH]cn1)[C@@H](C)O)C(C)C)[C@@H](C)CC)C(=O)O [NS1 229-243]	8080	733	
CC(C)C[C@H](NC(=O)[C@H](CCC(=O)O)NC(=O)[C@H](CC(C)C)NC(=O)[C@H](CCCCN)NC(=O)CNC(=O)[C@H](CC(C)C)NC(=O)[C@H](Cc1c[nH]cn1)NC(=O)[C@H](Cc1c[nH]c2ccccc12)NC(=O)[C@@H]1CCCN1C(=O)CNC(=O)[C@H](C)NC(=O)[C@@H](NC(=O)[C@H](CCC(N)=O)NC(=O)[C@@H](NC(=O)[C@@H](N)Cc1c[nH]cn1)[C@@H](C)O)[C@@H](C)O)C(=O)O [NS1 261-275]	666	1330	
CC[C@H](C)[C@H](N)C(=O)N[C@@H](CO)C(=O)N[C@@H](Cc1ccc(O)cc1)C(=O)NCC(=O)NCC(=O)NCC(=O)N[C@@H](Cc1c[nH]c2ccccc12)C(=O)N[C@@H](CCCNC(=N)N)C(=O)N[C@@H](CC(C)C)C(=O)N[C@@H](CO)C(=O)N[C@@H](C)C(=O)N[C@@H](CCC(N)=O)C(=O)N[C@@H](Cc1c[nH]c2ccccc12)C(=O)N[C@@H](CCC(N)=O)C(=O)N[C@@H](CCCCN)C(=O)O [NS3 77-91]	708	2020	
CC[C@H](C)[C@H](NC(=O)[C@@H](NC(=O)[C@H](CC(C)C)NC(=O)[C@H](CC(N)=O)NC(=O)[C@H](CCCNC(=N)N)NC(=O)[C@H](CCCCN)NC(=O)[C@H](CCCCN)NC(=O)[C@H](Cc1ccccc1)NC(=O)[C@H](CCSC)NC(=O)[C@H](CCC(=O)O)NC(=O)[C@@H](N)CCC(=O)O)[C@@H](C)O)C(=O)N[C@@H](CCSC)C(=O)N[C@@H](CC(=O)O)C(=O)N[C@@H](CC(C)C)C(=O)N[C@@H](Cc1c[nH]cn1)C(=O)O [NS3 181-195]	68	1260	
CC[C@H](C)[C@H](NC(=O)[C@@H](NC(=O)[C@H](CC(C)C)NC(=O)[C@H](CC(N)=O)NC(=O)[C@H](CCCNC(=N)N)NC(=O)[C@H](CCCCN)NC(=O)[C@@H](N)CCCCN)[C@@H](C)O)C(=O)N[C@@H](CCSC)C(=O)N[C@@H](CC(=O)O)C(=O)N[C@@H](CC(C)C)C(=O)N[C@@H](Cc1c[nH]cn1)C(=O)N1CCC[C@H]1C(=O)NCC(=O)N[C@@H](CO)C(=O)NCC(=O)O [NS3 185-199]	7.6	1460	
CC[C@H](C)[C@H](NC(=O)[C@H](C)NC(=O)[C@H](CCC(=O)O)NC(=O)[C@H](CCCNC(=N)N)NC(=O)[C@@H](N)C(C)C)C(=O)N[C@@H](CCCCN)C(=O)N[C@@H](CCCNC(=N)N)C(=O)N[C@@H](CCCNC(=N)N)C(=O)N[C@@H](CC(C)C)C(=O)N[C@@H](CCCNC(=N)N)C(=O)N[C@H](C(=O)N[C@@H](CC(C)C)C(=O)N[C@H](C(=O)N[C@@H](CC(C)C)C(=O)N[C@@H](C)C(=O)O)[C@@H](C)CC)[C@@H](C)O [NS3 209-223]	5.1	2610	
CC[C@H](C)[C@H](NC(=O)[C@H](CO)NC(=O)[C@H](C)N)C(=O)N[C@@H](C)C(=O)N[C@@H](C)C(=O)N[C@@H](CCCNC(=N)N)C(=O)NCC(=O)N[C@@H](Cc1ccc(O)cc1)C(=O)N[C@H](C(=O)N[C@@H](CO)C(=O)N[C@H](C(=O)N[C@@H](CCCNC(=N)N)C(=O)N[C@H](C(=O)NCC(=O)N[C@@H](CCSC)C(=O)O)C(C)C)[C@@H](C)O)[C@@H](C)CC [NS3 293-307]	2670	18900	
CC[C@H](C)[C@H](NC(=O)[C@H](Cc1c[nH]c2ccccc12)NC(=O)[C@H](CCC(=O)O)NC(=O)[C@H](CC(N)=O)NC(=O)CNC(=O)[C@H](CO)NC(=O)[C@H](CC(N)=O)NC(=O)[C@@H](N)Cc1c[nH]c2ccccc12)C(=O)N[C@H](C(=O)N[C@@H](CC(=O)O)C(=O)N[C@@H](Cc1ccccc1)C(=O)N[C@@H](C)C(=O)NCC(=O)N[C@@H](CCCCN)C(=O)N[C@H](C(=O)O)[C@@H](C)O)[C@@H](C)O [NS3 345-359]	1050	32	
C[C@H](NC(=O)[C@H](Cc1c[nH]c2ccccc12)NC(=O)[C@@H](NC(=O)[C@H](CCCCN)NC(=O)[C@H](Cc1ccc(O)cc1)NC(=O)[C@@H]1CCCN1C(=O)[C@H](CC(N)=O)NC(=O)[C@H](CCC(=O)O)NC(=O)[C@H](CC(=O)O)NC(=O)[C@H](CC(=O)O)NC(=O)[C@H](Cc1ccc(O)cc1)NC(=O)[C@H](Cc1c[nH]cn1)NC(=O)[C@H](Cc1c[nH]c2ccccc12)NC(=O)[C@@H](N)[C@@H](C)O)[C@@H](C)O)C(=O)N[C@@H](Cc1ccc(O)cc1)C(=O)N[C@@H](Cc1c[nH]cn1)C(=O)NCC(=O)O [NS5 290-306]	15600		
CC(C)[C@H](NC(=O)[C@H](CCC(=O)O)NC(=O)[C@H](Cc1ccc(O)cc1)NC(=O)[C@H](CO)NC(=O)CNC(=O)[C@H](Cc1c[nH]cn1)NC(=O)[C@H](Cc1ccc(O)cc1)NC(=O)[C@H](C)NC(=O)[C@H](Cc1c[nH]c2ccccc12)NC(=O)[C@@H](N)[C@@H](C)O)C(=O)N[C@@H](CCCCN)C(=O)N[C@@H](C)C(=O)N[C@H](C(=O)NCC(=O)N[C@@H](CO)C(=O)N[C@@H](C)C(=O)O)[C@@H](C)O [NS5 301-316]		536	1830
CC(C)C[C@H](NC(=O)CNC(=O)[C@H](CCC(=O)O)NC(=O)CNC(=O)[C@H](CCC(=O)O)NC(=O)[C@@H](NC(=O)CNC(=O)[C@H](CO)NC(=O)[C@H](Cc1ccc(O)cc1)NC(=O)[C@H](CO)NC(=O)[C@H](CC(N)=O)NC(=O)[C@H](CCC(=O)O)NC(=O)[C@H](CCCNC(=N)N)NC(=O)[C@H](CO)NC(=O)[C@H](Cc1ccccc1)NC(=O)[C@H](Cc1c[nH]c2ccccc12)NC(=O)[C@@H](N)Cc1c[nH]cn1)C(C)C)C(=O)O [NS5 495-511]		1160	723
CC[C@H](C)[C@H](NC(=O)[C@H](CCCCN)NC(=O)[C@H](CCCCN)NC(=O)[C@H](CCC(=O)O)NC(=O)[C@H](CC(C)C)NC(=O)[C@@H]1CCCN1C(=O)[C@H](Cc1c[nH]cn1)NC(=O)[C@@H]1CCCN1C(=O)[C@H](CC(N)=O)NC(=O)[C@H](CCC(=O)O)NC(=O)[C@H](CC(C)C)NC(=O)[C@H](CC(=O)O)NC(=O)[C@H](C)NC(=O)[C@@H](N)CCCCN)C(=O)N[C@H](C(=O)N[C@@H](CCC(N)=O)C(=O)N[C@@H](Cc1c[nH]c2ccccc12)C(=O)O)[C@@H](C)O [NS5 630-646]		13700	15500
CC[C@H](C)[C@H](NC(=O)[C@H](CCCCN)NC(=O)[C@H](CCCCN)NC(=O)[C@H](CCC(=O)O)NC(=O)[C@H](CC(C)C)NC(=O)[C@@H]1CCCN1C(=O)[C@H](Cc1c[nH]cn1)NC(=O)[C@@H]1CCCN1)C(=O)N[C@H](C(=O)N[C@@H](CCC(N)=O)C(=O)N[C@@H](Cc1c[nH]c2ccccc12)C(=O)N[C@@H](CC(C)C)C(=O)N[C@@H](CCC(=O)O)C(=O)N[C@H](C(=O)N[C@@H](CCCCN)C(=O)NCC(=O)N[C@H](C(=O)O)C(C)C)[C@@H](C)O)[C@@H](C)O [NS5 636-652]	3830		
CC[C@H](C)[C@H](NC(=O)[C@H](C)NC(=O)[C@H](CCSC)NC(=O)[C@H](CCCNC(=N)N)NC(=O)[C@H](CCCCN)NC(=O)[C@H](CC(C)C)NC(=O)[C@H](CCCNC(=N)N)NC(=O)[C@H](CCC(=O)O)NC(=O)[C@@H](N)C(C)C)C(=O)N[C@@H](CO)C(=O)NCC(=O)N[C@@H](CC(=O)O)C(=O)N[C@@H](CC(=O)O)C(=O)N[C@@H](CS)C(=O)N[C@H](C(=O)N[C@H](C(=O)N[C@@H](CCCCN)C(=O)O)C(C)C)C(C)C [NS5 652-668]	618		
CC[C@H](C)[C@H](NC(=O)[C@H](CC(C)C)NC(=O)[C@H](CCC(=O)O)NC(=O)[C@H](Cc1c[nH]cn1)NC(=O)[C@H](Cc1ccccc1)NC(=O)[C@H](Cc1c[nH]cn1)NC(=O)[C@H](Cc1c[nH]cn1)NC(=O)[C@H](CO)NC(=O)[C@H](CS)NC(=O)[C@H](Cc1ccccc1)NC(=O)[C@@H]1CCCN1C(=O)[C@@H](NC(=O)[C@H](CCC(N)=O)NC(=O)[C@H](CCC(N)=O)NC(=O)[C@H](Cc1c[nH]c2ccccc12)NC(=O)[C@@H](N)CC(=O)O)C(C)C)C(=O)N[C@@H](CCSC)C(=O)O [NS5 702-718]		4740	3220
EITPQASTTEAILPE [Envelope 161-175]	16600		
LPWTSGATTETPTWN [Envelope 216-230]	11600		
